According to patent US8501789B2, “Use of salicylaldehyde isonicotinoyl hydrazone (SIH) for protection against retinal disease” (The Trustees of the University of Pennsylvania, priority 2007, dated 2013):
Read-outs that look alike come from different tables or passages of the source.

Columns and labels:
ARPE-19 cells [1] = type: cell-based; details: for 5 mM H2O2 cytotoxicity: LDH release and Live/Dead
Procedure: Red indicates dead cells as detected by ethidium bromide homodimer fluorescence. Green indicates live cells as detected by calcein fluorescence;
(§1) Human adult RPE cells (ARPE-19 cell line from ATCC) were cultured until confluent in 24-well Falcon plates in 1:1 DMEM High Glucose with L-Glutamine and Ham's F12 media (Invitrogen, Carlsbad, Calif.) supplemented with 10% FBS (Hyclone, Logan, Utah). For labile iron detection ARPE cells were stably transfected with a pcDNA3.1 plasmid with an IRE-GFP insert (gift of Drs. Sangwon Kim and Sol Snyder, Johns Hopkins) as a reporter for intracellular iron levels. These cells were named iron-reporting ARPE (iRPE) cells. Efficacy of labile iron chelation was tested by adding different concentrations of SIH to the iron-free MEM medium on iRPE cells and assessing decrease in GFP fluorescence as a measure of reduction in intracellular iron levels at the 24 h time point. Epifluorescence microscopy was performed with a Nikon TE-300 microscope (Nikon Inc., Japan) and SpotRT Slider camera (Diagnostic Instruments, Inc., Sterling Heights, Mich.) with ImagePro Plus software, version 4.1 (Media Cybernetics, Silver Spring, Md.).
(§2) To evaluate SIH's cytoprotective properties, SIH at different concentrations was applied to confluent ARPE-19 cells four hrs prior to the addition of H2O2, staurosporine or anti-Fas antibody. Hydrogen peroxide (30% H2O2 from Sigma, St. Louis, Mo.) at final concentration ranging from 1 to 5 mM, Staurosporine (1 mM solution from Sigma) at 100-500 nM final concentration or aFas antibody (Upstate-Millipore, Billerica, Mass.) at 1 μg/mL final concentration were mixed with the indicated concentrations of SIH immediately before applying to ARPE-19 cells. All reagents were dissolved in Minimal Essential Medium (MEM, Invitrogen) as indicated and were applied rapidly and uniformly following two washing steps in HBSS.
Cell death was assayed after 24 hrs using the LDH Release Assay Kit (Roche, Basel, Switzerland). Cytotoxicity was calculated using the ratio between maximum LDH release in 2% Triton X100-treated cells and minimum LDH release in cells incubated in MEM. Visualization of cell death was performed using the LIVE/DEAD Viability/Cytotoxicity kit (Invitrogen).

[2] = system: intracellular labile iron levels in ARPE-19 cells stably transfected with the IRE-GFP reporter (iRPE); experiment: Labile iron chelation in IRE-GFP iron-reporting ARPE (iRPE) cells, GFP fluorescence; type: cell-based, Human; details: for GFP fluorescence (labile iron level): iRPE cells, 24 h, iron-free MEM
Procedure: Fluorescence intensity indicates relative intracellular iron levels. […] Images are representative of results from 3 independent experiments and taken using identical exposure parameters;
as §1, with “Efficacy of labile iron chelation was tested by adding different concentrations of SIH to the iron-free MEM medium on iRPE cells and assessing decrease in GFP fluorescence as a measure of reduction in intracellular iron levels at the 24 h time point.” left out
To quantify the labile iron pool, an iron-reporting RPE cell line (iRPE) was first generated, wherein fluorescence green fluorescent protein reflects labile iron levels. This was accomplished by making a stable cell line with the plasmid IRE-GFP (gift of Sangwon Kim and Sol Snyder). The iron responsive element (IRE) sequence in the 5′ untranslated region of the mRNA is bound by iron regulatory proteins only when labile iron levels are low, leading to inhibition of GFP translation. The fluorescence of iRPE cells treated with different concentrations of SIH for 24 h was determined (FIG. 2).

[3] = system: ARPE-19 cells that had accumulated A2E; experiment: A2E/blue light-induced cell death, MTT assay; type: cell-based
Procedure: Graphs show ARPE-19 cell viability measured by the MTT assay. Increased absorbance indicates increased viability. (A) Cells were incubated with the indicated concentrations of SIH-MEM for 4 h, irradiated with blue light for 20 min in DPBS-SIH, and incubated in MEM-SIH for 24 hr before performing MTT assay. (B) Cells were pre-treated with MEM-SIH for 4 h, irradiated with blue light for 20 min in DPBS and incubated in MEM for 24 h. (C) Cells were irradiated by blue light for 20 min in DPBS and SIH-MEM was applied immediately after irradiation and maintained for 24 hrs. (D) Cells were irradiated with blue light for 20 min in DPBS and SIH-MEM was applied 1 h after irradiation and maintained for 23 h before performing MTT assay. For all graphs, relative to no SIH, * p<0.05, ** p<0.01, *** p<0.001;
For blue light irradiation experiments ARPE-19 cells devoid of endogenous lipofuscin were grown in complete medium (DMEM with 10% fetal calf serum and supplements) as previously described. At confluence the cells were allowed to accumulate A2E from a 10 μM concentration delivered in the culture medium over a 2 week period.
ARPE-19 cells that had accumulated A2E were treated with SIH in MEM for 4 hrs unless otherwise indicated. The SIH/MEM was subsequently exchanged for DPBS, the cells were irradiated at 430 nm for 20 min and then returned to complete medium and incubated for 24 hrs. Variations on this paradigm included experiments in which exposure to SIH/MEM was continued during illumination at 430 nm and for 24 hr thereafter; and experiments in which cells were not pre-incubated with SIH but instead were treated with SIH/MEM beginning either immediately after irradiation and continuing for 24 hrs or beginning 1 hr after irradiation and continuing for 23 hrs. In all experiments controls included A2E-laden irradiated cells that were not treated with SIH, cells that received no treatment (A2E-free, non-irradiated, incubation with MEM in the absence of SIH) and cells treated only with SIH.
In blue light irradiation experiments cell death was assayed by the 3-(4,5-dimethylthiazol-2-yl)-2,5-diphenyltetrazolium bromide assay, a measure of the ability of healthy cells to cleave the yellow tetrazolium salt MTT to purple formazan crystals. Briefly, following the post-illumination incubation described above, 20 uL of MTT labeling reagent (Roche Diagnostics Corp, Indianapolis, Ind.) was added to 0.2 mL of culture medium in each well and after a 4 hr incubation, the labeling reagent was replaced with 200 uL of solubilization solution for an overnight incubation. After centrifugation at 13,000 rpm for 2 min, supernatants were measured spectrophotometrically. A decrease in the absorbance (570 nm) of reduced MTT was indicative of diminished cellular viability.

ARPE-19 cells [4] = experiment: Anti-Fas antibody (aFas)-induced cell death, LDH release assay; type: cell-based, Human; details: SIH beginning 4 hrs before treatment with aFas
Procedure: All reagents were dissolved in Minimal Essential Medium (MEM, Invitrogen) as indicated and were applied rapidly and uniformly following two washing steps in HBSS. Cell death was assayed after 24 hrs using the LDH Release Assay Kit (Roche, Basel, Switzerland). Cytotoxicity was calculated using the ratio between maximum LDH release in 2% Triton X100-treated cells and minimum LDH release in cells incubated in MEM.

ARPE-19 cells [5] = experiment: Staurosporine-induced cell death, LDH release and LIVE/DEAD assay; type: cell-based, Human
Procedure: as §2, with “(A) Graph of LDH release following exposure of ARPE-19 cells to varying concentrations of staurosporine. […] (B) Graph of LDH release following exposure of ARPE-19 cells to 200 nM staurosporine plus different concentrations of SIH. […] (C) Fluorescence photomicrograph of cells labeled with the LIVE/DEAD assay following treatment with staurosporine and/or SIH as indicated; To” for “To”, “HBSS. Cell death was assayed after 24 hrs using the LDH Release Assay Kit (Roche, Basel, Switzerland). Cytotoxicity was calculated using the ratio between maximum LDH release in 2% Triton X100-treated cells and minimum LDH release in cells incubated in MEM. Visualization of cell death was performed using the LIVE/DEAD Viability/Cytotoxicity kit (Invitrogen).” for “HBSS.”

ARPE-19 cells [6] = experiment: Intracellular ROS generation, dihydrorhodamine 123 fluorescence; type: cell-based, Human
Procedure: Level of ROS generation is detected by dihydrorhodamine 123 (green fluorescence) in cells treated with staurosporine and/or 3 μM SIH as indicated. Mitotracker dye (red fluorescence) indicates location of mitochondria; and
Intracellular ROS generation was measured in cultured cells by using the fluorescent probe dihydrorhodamine 123 (DHR123). Mitochondria were localized with Mitotracker Red 580 (Molecular Probes, Eugene, Oreg.). After 30 min of staurosporine exposure with our without SIH, cells were incubated with staurosporine +/−SIH in the presence of 10 μM DHR123 and 2 μM Mitotracker Red 580 at 37° C. for 15 min. DHR fluoresces and localizes to mitochondria when oxidized by ROS to the positively charged rhodamine 123^33. Mitotracker dye passively diffuses across the plasma membrane and specifically accumulates in active mitochondria.
To test whether iron contributes to this ROS production, and whether a decrease in mitochondrial ROS might be a mechanism of SIH protection, ROS were detected with rhodamine 123 after 30 min of staurosporine treatment. In the presence of ROS, non-fluorescent dihydrorhodamine 123 is converted into highly fluorescent rhodamine 123.

ARPE-19 cells [7] = type: cell-based, Human
[8] = UV/VIS spectra of SIH, H2O2 and their mixture (chemical interaction); type: physicochemical

OO [H2O2, hydrogen peroxide, reference compound]
cell death (ARPE-19 cells [1]; 5 mM H2O2, 24 h, LDH release and Live/Dead assay): 100%

O=C(NN=Cc1ccccc1O)c1ccncc1 [SIH, salicylaldehyde isonicotinoyl hydrazone]
GFP fluorescence (labile iron level) ([2]; 3 μM SIH): decreased significantly | GFP fluorescence (labile iron level) ([2]; 10 μM SIH): decreased significantly | GFP fluorescence (labile iron level) ([2]; 50 μM SIH): close to the level of untreated control | GFP fluorescence (labile iron level) ([2]; 100 μM SIH): close to the level of untreated control | GFP fluorescence (labile iron level) ([2]; 1 mM SIH): decreased slightly | iRPE fluorescence levels ([2]; iron-containing medium DMEM-F12 with 10% fetal calf serum): decreased the fluorescence | 5 mM H2O2 cytotoxicity (ARPE-19 cells [1]; 5 μM SIH before H2O2 and mixed with H2O2, 24 h): completely abolished | 5 mM H2O2 cytotoxicity (ARPE-19 cells [1]; 10 μM SIH before H2O2 and mixed with H2O2, 24 h): completely abolished | cytoprotection against H2O2 (ARPE-19 cells [1]; SIH applied 1 h after H2O2 (data not shown)): no protection | cytoprotection against H2O2 (ARPE-19 cells [1]; SIH applied together with H2O2 but without SIH pre-treatment): Diminished cytoprotection | cytoprotection against H2O2 (ARPE-19 cells [1]; SIH pre-incubated with ferric ammonium citrate in a 2:1 molar ratio (data not shown)): no protection | protection of cell viability (MTT) ([3]; SIH applied 1 hr after light exposure): partial protection | cell viability (MTT) ([3]; SIH before, during, or as late as 1 hr after blue light exposure): cell viability was increased | cell viability (MTT) ([3]; SIH present before, during, and after light exposure): greatest increase in cell viability | SIH-mediated toxicity ([3]; cells incubated with SIH but not exposed to A2E or blue light): No SIH-mediated toxicity | cell death caused by Fas activation (LDH release) (ARPE-19 cells [4]): reduced cell death | cell viability (LDH release) (ARPE-19 cells [5]; SIH 4 h before and through 24 h of 200 nM staurosporine): increased in an SIH concentration-dependent manner | cell viability (LDH release) (ARPE-19 cells [5]; SIH 4 h before and through 24 h of 500 nm staurosporine (not shown)): increased in an SIH concentration-dependent manner | red (dead) cells, live/dead fluorescent imaging (ARPE-19 cells [5]; staurosporine plus 5 μM SIH): very few or none | red (dead) cells, live/dead fluorescent imaging (ARPE-19 cells [5]; staurosporine plus 10 μM SIH): very few or none | SIH concentration of greatest cytoprotective effect (ARPE-19 cells [5]; staurosporine-induced cell death): 10 µM | staurosporine-induced rhodamine 123 fluorescence (ROS) (ARPE-19 cells [6]; 3 μM SIH): diminished | carbonyl levels in total protein extracts (ARPE-19 cells [7]; H2O2-treated cells, 5 μM SIH, 24 h): did not affect | carbonyl levels in mitochondria-enriched fractions (ARPE-19 cells [7]; cells treated for 24 h with H202, 5 μM SIH): more pronounced decrease | carbonyl levels in mitochondria-enriched fractions (ARPE-19 cells [7]; cells treated for 24 h with staurosporine, 5 μM SIH): more pronounced decrease | carbonyls in total protein extracts (ARPE-19 cells [7]; staurosporine-treated cells, 5 μM SIH, 24 h): small decrease | changes in spectroscopic properties of SIH-H2O2 mixture compared with SIH and H2O2 alone [8]: did not detect any changes

CN[C@@H]1C[C@H]2O[C@@](C)([C@@H]1OC)n1c3ccccc3c3c4c(c5c6ccccc6n2c5c31)C(=O)NC4 [staurosporine, reference compound]
cell death (LDH release) (ARPE-19 cells [5]; 200 nM staurosporine): significant cell death | cell death (LDH release) (ARPE-19 cells [5]; 500 nM staurosporine): significant cell death | fluorescence of rhodamine 123 (ROS) (ARPE-19 cells [6]; 200 nM staurosporine for 30 min, then dihydrorhodamine 123 for 15 min): increased fluorescence | fluorescence of rhodamine 123 (ROS) (ARPE-19 cells [6]; 500 nM staurosporine): greater increase in fluorescence
